These results are taken from patent US7189748B2, “Compounds and methods for treating insulin resistance and cardiomyopathy” (Forbes Medi-Tech (Research), Inc., priority 2004, dated 2007).

Assay [1] deals with SPT. As to conditions: literature statement; cited from earlier work.
Assay [2] deals with Rat pancreatic islets. Briefly: Protection of islets from fatty acid (palmitate) induced apoptosis, propidium iodide flow cytometry. It counts as cell-based. As to conditions: 3 days; for % Apoptosis: Fatty Acid medium (1 millimolar sodium palmitate), Control medium 2.40, Fatty Acid medium 17.60. The protocol: Islet protection by an exemplary compound was evaluated in an assay according to Eitel, K, et al (2002), and results obtained in this assay are reported below in Table 4. Rat pancreatic islets were cultured with control medium (RPMI 1640 supplemented with 10% fetal bovine serum, antibiotics and made […]) or in medium supplemented with 1 millimolar sodium palmitate (Fatty Acid Medium) during a period of 3 days. The culture medium was changed after 2 days to an identical composition culture medium with fresh inhibitor in the appropriate wells. Cells were stained with propidium iodide (PI), washed and propidium staining of cells (as a measure of cellular DNA content) was assessed by flow cytometry. The percentage of cells having less than the normal amount of PI staining was considered to be apoptotic cells (Eitel, K, et al. (2002)).

In assay [3] the target is T1, SPT (Homo sapiens, UniProt O15269+O15270).
T1 construct: endogenous in cells
T1 sequence (O15269 1-473): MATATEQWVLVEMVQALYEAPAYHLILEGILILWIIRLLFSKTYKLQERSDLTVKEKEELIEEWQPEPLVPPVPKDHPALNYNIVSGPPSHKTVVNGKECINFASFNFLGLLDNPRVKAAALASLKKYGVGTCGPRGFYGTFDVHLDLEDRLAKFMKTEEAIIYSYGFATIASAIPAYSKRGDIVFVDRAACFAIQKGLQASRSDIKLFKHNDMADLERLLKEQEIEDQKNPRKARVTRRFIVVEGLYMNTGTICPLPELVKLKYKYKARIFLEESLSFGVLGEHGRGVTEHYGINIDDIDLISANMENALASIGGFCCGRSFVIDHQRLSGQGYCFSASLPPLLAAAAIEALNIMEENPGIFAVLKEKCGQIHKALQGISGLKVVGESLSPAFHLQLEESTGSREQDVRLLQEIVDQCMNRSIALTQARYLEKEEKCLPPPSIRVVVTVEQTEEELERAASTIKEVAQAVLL
T1 sequence (O15270 1-562): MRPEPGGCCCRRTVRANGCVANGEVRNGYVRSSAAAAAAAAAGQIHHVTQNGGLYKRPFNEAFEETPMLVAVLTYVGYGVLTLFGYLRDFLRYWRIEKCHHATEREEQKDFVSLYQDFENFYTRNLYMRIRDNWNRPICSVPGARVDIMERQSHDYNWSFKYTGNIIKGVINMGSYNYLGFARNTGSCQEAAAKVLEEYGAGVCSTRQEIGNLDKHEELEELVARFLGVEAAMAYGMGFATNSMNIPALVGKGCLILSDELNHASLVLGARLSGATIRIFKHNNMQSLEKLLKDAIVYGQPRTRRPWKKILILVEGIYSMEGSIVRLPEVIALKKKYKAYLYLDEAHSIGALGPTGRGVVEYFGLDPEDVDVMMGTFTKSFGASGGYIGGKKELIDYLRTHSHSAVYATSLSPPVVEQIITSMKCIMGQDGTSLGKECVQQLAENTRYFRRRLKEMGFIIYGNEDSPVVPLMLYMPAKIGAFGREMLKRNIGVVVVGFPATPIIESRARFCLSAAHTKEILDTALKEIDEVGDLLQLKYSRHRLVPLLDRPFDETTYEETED
T1 sequence (Q969W0 1-71 partner): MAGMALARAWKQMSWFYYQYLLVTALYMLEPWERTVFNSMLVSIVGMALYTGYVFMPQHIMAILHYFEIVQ
Briefly: Serine palmitoyltransferase activity, Assay C ([3H]serine incorporation into lipids, cell homogenate). It counts as biochemical. As to conditions: for inhibition of SPT (in words): Assay C, at the doses of Table 2. The protocol: An alternative assay for evaluating inhibition of SPT, the enzyme present in commonly cultured cells, is performed with CHO cells or a human cell line. Cells are washed three times with ice-cold phosphate-buffered saline (PBS). A total of 0.5 mL of lysis buffer [50 mM Hepes (pH 8.0) containing 5 mM ethylenediaminetetraacetic acid (EDTA) and 5 mM dithiothreitol (DTT)] is added to each dish. The cells are scraped using a rubber policeman, and are then transferred to a test tube on ice. The cell suspension is sonicated three times for 5 s at 1–2 min intervals on ice. Protein concentrations in cell homogenates are measured using a Bradford protein assay kit (Bio-Rad). To measure the SPT activity, 0.1 mL of cell homogenates are added to 0.1 mL of reaction buffer [20 mM Hepes (pH 8.0) containing 5 mM EDTA, 10 mM DTT, 50 μM pyridoxal-5′-phosphate, 0.4 mM palmitoyl CoA, 2 mM L-serine, 10 μCi of [^3H]serine, and test compound or standard inhibitor (myriocin). After incubation at 37° C. for 20 min with shaking, the reaction is terminated with 0.5 mL of 0.5 N NH4OH containing 10 mM L-serine. The lipid products are extracted using the solvent system: 3 mL of chloroform/methanol (1:2), 25 μg of sphingosine (1 mg/mL in ethanol) as a carrier, 2 mL of chloroform, and 3.8 mL of 0.5 N NH4OH. After vigorous mixing, the phases are separated by centrifugation at 2500 rpm for 5 min. The aqueous layer is removed by aspiration, and the lower chloroform layer is washed 3 times with 4.5 mL of water. The chloroform layer is transferred to a scintillation vial, and the solvent is evaporated under N2 gas. The radioactivity is measured with a LS6000TA liquid scintillation counter (Beckman). Nonspecific conversion of [^3H] serine to chloroform-soluble species is determined by performing the assay in the absence of palmitoyl CoA. The count of the background is about one-sixth of the count of 100% activity.
An alternative assay using a non-chlorinated solvent modification of the Blye and Dyer lipid extraction method reported in Smedes (Smedes, F., Analyst 124:1711–18 (1999)) was employed to evaluate exemplary compounds. In this approach, the cells were washed three times with ice-cold phosphate-buffered saline and 0.5 mL of lysis buffer was added to each dish. The cells were scraped using a rubber policeman and transfer to a test tube on ice. The cell suspension was sonicated three times for 5 s at 1–2 min intervals on ice. A 0.1 mL sample of cell homogenates were added to 0.1 mL of reaction buffer in a test tube containing the appropriate concentration of test substance and 10 μCi of [^3H] serine. The reaction mixture was incubated at 37° C. for 20 min with shaking, and the reaction was terminated with 0.5 mL of […] NH4OH stop solution containing 10 mM unlabeled L-serine. Total lipids are extracted by transferring the contents of the test tube into a 15 ml centrifuge tube containing: 4.5 mL of isopropanol/cyclohexane (4:5) containing 25 μg of sphingosine (1 mg/mL in ethanol and diluted into the isopropanol/cyclohexane mixture) as a carrier. The contents were mixed vigorously and 4 mL of 0.5 N NH4OH was added. The phases were separated by centrifugation at 2500 rpm for 5 min. An accurately measured portion of the organic layer (4.0 ml) was added to a scintillation vial with 1 ml of water. Ultima Gold F (5 ml) was added, the vial was vortexed and allowed to settle into separate layers. The amount of [^3H] serine radioactivity incorporated into lipids was quantified in a scintillation counter. Non-specific counts were determined by carrying out the assay with control samples containing no palmitoyl CoA.

Assay [4] has as its system beta cell apoptosis. As to conditions: diabetic Zucker fatty rat model; cited from earlier work.
The mark [5] stands for this setting: 1 nM, Table 2, No Inhibitor 4443/4483, no CoA blank 305.
The mark [6] stands for this setting: 10 nM, Table 2, No Inhibitor 4443/4483, no CoA blank 305.

Consider `CCCCCCCCc1ccc(CCC(N)(CO)C(=O)O)cc1` (stereo not shown) [Compound 2], for which the “activity against SPT (in words)” value in assay [1] is “did not exhibit activity against SPT”.
Take `CCCCCCCOc1ccc(CCC(N)(CO)C(=O)O)cc1` (stereo not shown) [Compound 12]: in assay [2], the “% Apoptosis” value was 2.33%. The “protection of cells from the fatty acid treatment (in words)” value in assay [2] (rat islets, fatty acid medium) is recorded as “fully protect cells”. Further, the Counts in assay [3] (setting [5]) is reported as 4215; in assay [3] (setting [6]) it was 4118; in assay [3] (100 nM, Table 2, No Inhibitor 4443/4483, no CoA blank 305), 4258; in assay [3] (1 μM, Table 2, No Inhibitor 4443/4483, no CoA blank 305) it was 4169; in assay [3] (10 μM, Table 2, No Inhibitor 4443/4483, no CoA blank 305), 4608. Moreover, the “inhibition of SPT (in words)” value in assay [3] is listed as “moderate activity”.
As to `CCCCCCCCc1ccc(CCC(N)(CO)CO)cc1` [FTY720], the “activity against SPT (in words)” value in assay [1] is on record as “do not inhibit SPT”.
As for `CCCCCCC(=O)CCCCCC/C=C/C[C@@H](O)[C@H](O)[C@@](N)(CO)C(=O)O` [ISP, myriocin], the “% Apoptosis” value in assay [2] was found to be 14.65%. For the same compound, the Counts in assay [3] (setting [5]) is given as 2509; in assay [3] (setting [6]) it was 535; in assay [3] (10 nM, Table 3, Control 5816, No Palm CoA 611) it was 959. Moreover, the “inhibition of SPT (in words)” value in assay [3] is “potent but non-selective inhibition of SPT”.
For the compound `N[C@@H]1CON=C1O` [cycloserine], the “partial beta cell protective effect” value in assay [4] was around 50 % activity.
